Assay results: BindingDB's records for doi:10.7270/Q2HX1B3F (The Scripps Research Institute Molecular Screening Center, 2007)

target: Collagenase 3 (Homo sapiens, UniProt P45452); test: MMP13 inhibitors among autofluorescent compounds, dose response, biochemical, fluorescence (AID 769)

| IC50 | Structure (SMILES) |
| --- | --- |
| > 39.8 µM | O=S(=O)(Nc1ccc(-c2nc3cccnc3s2)cc1)c1cccs1 |
| 0.883 µM | Cc1nn(-c2ccccc2)c2sc(-c3nnc(S)o3)cc12 [MLS000043319] |
| > 39.8 µM | CCOC(=O)CSc1nc(-c2ccc3c(c2)OCO3)ccc1C#N [2-[[6-(1,3-benzodioxol-5-yl)-3-cyano-2-pyridinyl]thio]acetic acid ethyl ester] |
| > 39.8 µM | Fc1cccc2sc(Nc3nnc(-c4ccccc4)o3)nc12 [(4-fluoro-1,3-benzothiazol-2-yl)-(5-phenyl-1,3,4-oxadiazol-2-yl)amine] |
| > 39.8 µM | COc1cccc(-c2nnc(Nc3nc4c(F)cccc4s3)o2)c1 [(4-fluoro-1,3-benzothiazol-2-yl)-[5-(3-methoxyphenyl)-1,3,4-oxadiazol-2-yl]amine] |
| 1.68 µM | Oc1ccc(/N=C/c2ccc(-c3cccs3)s2)cc1 [4-[(5-thiophen-2-yl-2-thiophenyl)methylideneamino]phenol] |
| 3.97 µM | COc1ccc(-c2ccc(-c3noc(-c4ccccc4C)n3)c(OC)n2)cc1 [3-(2-methoxy-6-(4-methoxyphenyl)pyridin-3-yl)-5-o-tolyl-1,2,4-oxadiazole] |
| 3.52 µM | COc1cc(OC)cc(-c2nnc(Nc3nc4c(F)cccc4s3)o2)c1 [5-(3,5-dimethoxyphenyl)-N-(4-fluorobenzo[d]thiazol-2-yl)-1,3,4-oxadiazol-2-amine] |
